Results: ChEMBL document CHEMBL4368907 (J Med Chem, 2019)
Activity calls are given as the source filed them. The calls are words filed in the database; no cut-off is given here. Numbered stars: 1 amine (or outer) side, 2 acyl side, 3 side chain; on linkers, the order of the positions; unused ones are H or OH. Square brackets hold non-standard residues; d marks the D form. Side chains are listed from the residue outwards. Peptide text beside a SMILES is read from it. * marks the point of attachment. Phe(4-CH2SO3H) = N[C@@H](Cc1ccc(CS(=O)(=O)O)cc1)C(=O)O; sY = N[C@@H](Cc1ccc(OS(=O)(=O)O)cc1)C(=O)O; C18 diacid = O=C(O)CCCCCCCCCCCCCCCCC(=O)*; γGlu = O=C(O)[C@H](CCC(=O)[*:2])N[*:1]; NMeF = CN[C@@H](Cc1ccccc1)C(=O)O; NMeD = CN[C@@H](CC(=O)O)C(=O)O; dNMeD = CN[C@H](CC(=O)O)C(=O)O; Nle = CCCC[C@H](N)C(=O)O; X1 = O=C(Cc1ccc(O)cc1)*; AEEA = NCCOCCOCC(=O)O

Columns and labels:
Sus scrofa [1] = test: Anti-obesity activity in lean Landrace Yorkshire Duroc pig assessed as food intake at 30 nmol/kg, sc measured at 48 to 72 hrs post dose (reference value: 1.8 to 2.1 kg); type: functional
Sus scrofa [2] = test: Anti-obesity activity in lean Landrace Yorkshire Duroc pig assessed as food intake at 30 nmol/kg, sc measured at 72 to 96 hrs post dose (reference value: 1.8 to 2.1 kg); type: functional
Sus scrofa [3] = test: Anti-obesity activity in lean Landrace Yorkshire Duroc pig assessed as food intake at 30 nmol/kg, sc measured at 24 to 48 hrs post dose (reference value: 1.8 to 2.1 kg); type: functional
Sus scrofa [4] = test: Anti-obesity activity in lean Landrace Yorkshire Duroc pig assessed as food intake at 30 nmol/kg, sc measured up to 24 hrs post dose (reference value: 1.8 to 2.1 kg); type: functional
[5] = Terminal half life in Ellegaard Gottingen minipig at 5 nmol/kg, iv by LC-MS/MS analysis; type: ADME, organism-based, Sus scrofa; settings: pig, in vivo, read-out: beta t1/2 (converted)
[6] = biological target: T1, Gastrin/cholecystokinin type B receptor (Homo sapiens, UniProt P32239); test: (§1) Displacement of [125I]-CCK-8 from human CCK2R expressed in human 1321N1 cell membranes after 2 hrs by SPA assay
T1 sequence (P32239 whole entry): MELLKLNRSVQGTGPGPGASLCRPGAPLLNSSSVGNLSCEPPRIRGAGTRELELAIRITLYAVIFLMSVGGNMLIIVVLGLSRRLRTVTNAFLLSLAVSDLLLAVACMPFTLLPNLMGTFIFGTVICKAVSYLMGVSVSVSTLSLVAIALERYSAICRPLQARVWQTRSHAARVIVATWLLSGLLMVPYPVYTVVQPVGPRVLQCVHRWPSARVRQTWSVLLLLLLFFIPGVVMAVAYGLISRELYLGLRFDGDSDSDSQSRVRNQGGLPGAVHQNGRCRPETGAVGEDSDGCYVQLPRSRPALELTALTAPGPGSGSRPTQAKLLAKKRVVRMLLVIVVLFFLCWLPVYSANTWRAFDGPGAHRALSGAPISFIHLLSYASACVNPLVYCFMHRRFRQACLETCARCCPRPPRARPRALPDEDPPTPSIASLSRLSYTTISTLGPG

[7] = biological target: T2, Cholecystokinin receptor type A (Homo sapiens, UniProt P32238); test: (§2) Displacement of [125I]-CCK-8 from human CCK1R expressed in human 1321N1 cell membranes after 2 hrs by SPA assay
T2 sequence (P32238 whole entry): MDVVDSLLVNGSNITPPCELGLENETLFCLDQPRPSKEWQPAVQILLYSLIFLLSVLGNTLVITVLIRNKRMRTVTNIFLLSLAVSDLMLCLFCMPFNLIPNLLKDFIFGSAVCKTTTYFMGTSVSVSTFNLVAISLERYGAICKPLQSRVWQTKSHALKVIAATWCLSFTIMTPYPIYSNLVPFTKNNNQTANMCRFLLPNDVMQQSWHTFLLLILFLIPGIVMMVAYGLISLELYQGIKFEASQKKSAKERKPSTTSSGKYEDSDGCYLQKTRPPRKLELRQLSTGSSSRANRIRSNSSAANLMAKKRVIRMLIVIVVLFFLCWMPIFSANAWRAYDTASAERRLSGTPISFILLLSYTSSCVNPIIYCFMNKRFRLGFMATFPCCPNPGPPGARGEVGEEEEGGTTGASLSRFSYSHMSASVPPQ

[8] = Toxicity in lean Landrace Yorkshire Duroc pig at 30 nmol/kg, sc measured up to 96 hrs post dose; type: organism-based, Sus scrofa; settings: in vivo
[9] = biological target: T2, Cholecystokinin receptor type A; test: (§3) Agonist activity at human CCK1R expressed in human 1321N1 cells assessed as IP1 accumulation after 1 hr by HTRF assay; type: functional, cell-based
[10] = biological target: T1, Gastrin/cholecystokinin type B receptor; test: (§4) Agonist activity at human CCK2R expressed in human 1321N1 cells assessed as IP1 accumulation after 1 hr by HTRF assay; type: functional, cell-based
[11] = Plasma concentration in lean Landrace Yorkshire Duroc pig at 30 nmol/kg, sc measured after 96 hrs post dose; type: ADME, organism-based, Sus scrofa
[12] = Drug level in Ellegaard Gottingen minipig plasma treated with C18d-gammaGlu-(OEG)2-Asp-Phe(4sm)-Nle-Gly-Trp-Nle-DMeAspMePhe-NH2 at 5 nmol/kg, iv administered as single dose by LC-MS/MS analysis; type: ADME, organism-based, Sus scrofa; settings: pig, in vivo
[13] = biological target: T3, Gastrin/cholecystokinin type B receptor (Homo sapiens) (UniProt P32239); test: as §1
T3 sequence (whole entry): T1 sequence (P32239 whole entry)

[14] = biological target: T4, Cholecystokinin receptor type A (Homo sapiens) (UniProt P32238); test: as §2
T4 sequence (whole entry): T2 sequence (P32238 whole entry)

[15] = biological target: T4, Cholecystokinin receptor type A (Homo sapiens); test: as §3; type: functional, cell-based
[16] = biological target: T3, Gastrin/cholecystokinin type B receptor (Homo sapiens); test: as §4; type: functional, cell-based

concentration at 96 h [11] [nM]	Structure (SMILES)	Activity (Sus scrofa [1]) [kg]	Activity (Sus scrofa [2]) [kg]	Activity (Sus scrofa [3]) [kg]	Activity (Sus scrofa [4]) [kg]	Activity [8]	also measured
8.5	CCCC[C@H](NC(=O)[C@H](Cc1c[nH]c2ccccc12)NC(=O)CNC(=O)[C@H](CC(C)C)NC(=O)[C@H](Cc1ccc(O)cc1)NC(=O)[C@H](CC(=O)O)NC(=O)COCCOCCNC(=O)COCCOCCNC(=O)CC[C@H](NC(=O)CCCCCCCCCCCCCCCCC(=O)O)C(=O)O)C(=O)N(C)[C@@H](CC(=O)O)C(=O)N(C)[C@@H](Cc1ccccc1)C(N)=O	–	–	–	–	Non-Toxic	half-life [5]: 45 h; pIC50 [6]: 5.31; pIC50 [7]: 8.99; pEC50 [9]: 9.81; pEC50 [10]: < 6
91.2	CC(C)C[C@H](NC(=O)[C@H](Cc1ccc(OS(=O)(=O)O)cc1)NC(=O)[C@H](CC(=O)O)NC(=O)COCCOCCNC(=O)COCCOCCNC(=O)CC[C@H](NC(=O)CCCCCCCCCCCCCCCCC(=O)O)C(=O)O)C(=O)NCC(=O)N[C@@H](Cc1c[nH]c2ccccc12)C(=O)N[C@@H](CCC(N)=O)C(=O)N(C)[C@H](CC(=O)O)C(=O)N(C)[C@@H](Cc1ccccc1)C(N)=O ({C18 diacid-γGlu-AEEA-AEEA}-D[sY]LGWQ[dNMeD][NMeF]-NH2)	1.8	1.8	1.3	1.4	Non-Toxic	EC50 [9]: 0.135 nM

More lines, now with the values behind:

Structure (SMILES)	concentration at 96 h [11] [nM]	Activity (Sus scrofa [1]) [kg]	Activity (Sus scrofa [2]) [kg]	Activity (Sus scrofa [3]) [kg]	Activity (Sus scrofa [4]) [kg]	Activity [8]	also measured
CCCC[C@H](NC(=O)[C@H](Cc1c[nH]c2ccccc12)NC(=O)CNC(=O)[C@H](CCCCNC(=O)COCCOCCNC(=O)COCCOCCNC(=O)CC[C@H](NC(=O)CCCCCCCCCCCCCCCCC(=O)O)C(=O)O)NC(=O)Cc1ccc(O)cc1)C(=O)N(C)[C@@H](CC(=O)O)C(=O)N(C)[C@@H](Cc1ccccc1)C(N)=O (X1-K([AEEA-AEEA-γGlu-C18 diacid])GW[Nle][NMeD][NMeF]-NH2)	–	2.1	2.4	2.2	2.1	–	–
O=C(O)CCCCCCCCCCCCCCCCC(=O)N[C@@H](CCC(=O)NCCOCCOCC(=O)NCCOCCOCC(=O)N[C@@H](CC(=O)O)C(=O)N[C@@H](Cc1ccc(CS(=O)(=O)O)cc1)C(=O)O)C(=O)O	–	–	–	–	–	–	Drug uptake [12]: Active
CCCC[C@H](NC(=O)[C@H](Cc1ccc(CS(=O)(=O)O)cc1)NC(=O)[C@H](CC(=O)O)NC(=O)COCCOCCNC(=O)COCCOCCNC(=O)CC[C@H](NC(=O)CCCCCCCCCCCCCCCCC(=O)O)C(=O)O)C(=O)NCC(=O)N[C@@H](Cc1c[nH]c2ccccc12)C(=O)N[C@@H](CCCC)C(=O)N(C)[C@@H](CC(=O)O)C(=O)N(C)[C@@H](Cc1ccccc1)C(N)=O ({C18 diacid-γGlu-AEEA-AEEA}-D[Phe(4-CH2SO3H)][Nle]GW[Nle][NMeD][NMeF]-NH2)	93.9	2.3	2.2	2	1.9	Non-Toxic	IC50 [6]: 8710 nM; IC50 [7]: 0.316 nM; EC50 [9]: 0.107 nM; EC50 [10]: > 1000 nM
CCCC[C@H](NC(=O)[C@H](Cc1ccc(CS(=O)(=O)O)cc1)NC(=O)[C@H](CC(=O)O)NC(=O)COCCOCCNC(=O)COCCOCCNC(=O)CC[C@H](NC(=O)CCCCCCCCCCCCCCCCC(=O)O)C(=O)O)C(=O)NCC(=O)O ({C18 diacid-γGlu-AEEA-AEEA}-D[Phe(4-CH2SO3H)][Nle]G-OH)	–	–	–	–	–	–	Drug uptake [12]: Active
CCCC[C@H](NC(=O)[C@H](Cc1ccc(OS(=O)(=O)O)cc1)NC(=O)[C@H](CC(=O)O)NC(=O)COCCOCCNC(=O)COCCOCCNC(=O)CC[C@H](NC(=O)CCCCCCCCCCCCCCCCC(=O)O)C(=O)O)C(=O)NCC(=O)N[C@@H](Cc1c[nH]c2ccccc12)C(=O)N[C@@H](CCC(=O)O)C(=O)N[C@@H](CC(=O)O)C(=O)N[C@@H](Cc1ccccc1)C(N)=O ({C18 diacid-γGlu-AEEA-AEEA}-D[sY][Nle]GWEDF-NH2)	–	–	–	–	–	–	pIC50 [13]: inactive; pIC50 [14]: inactive; pEC50 [15]: inactive; pEC50 [16]: inactive
